Test results as given in EP0252983B1, “SALTS OF N-(VINYLOXIETHYL)DITHIOCARBAMIC ACID, METHOD OF OBTAINING THEREOF AND […] ON THEM” (priority 1985, dated 1987).

Tests used:
Botrytis cinerea = test: Mycelial growth inhibition on agar (contact activity); assay type: cell-based; details: 120 h, Kartoffel-Glukose-Nährmedium, read-out: Myzelhemmung in %
Summary of the method: (§1)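 Compound dissolved in water and mixed into potato-glucose agar poured into dishes. Mycelium stab-inoculated after 24 h, then incubated 5 days at 24–26 °C. Colony diameters measured on day 5, and % mycelial growth inhibition calculated by Abbott's formula.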

Verticillium dahliae [1] = test: as above; assay type: cell-based; details: 120 h, Kartoffel-Glukose-Nährmedium, read-out: Myzelhemmung in %
Summary of the method: as §1

Fusarium sambucinum = test: as above; assay type: cell-based; details: Fusarium sambucinum, 120 h, Kartoffel-Glukose-Nährmedium, read-out: Myzelhemmung in %
Penicillium charlesii = test: as above; assay type: cell-based; details: Penicillium charlesii, 120 h, Würzeagar, read-out: Myzelhemmung in %
Protocol: (§2) Die Prüfungen werden nach dem Verfahren zur Ermittlung der Kontaktaktivität durchgeführt. Man verwendet das in Wasser gelöste Kalium-N-(vinyloxyäthyl)dithiocarbamat, führt es in ein Nährmedium ein und vergießt auf Petri-Schalen. Nach 24 Stunden wird mit Pilzmyzelium nach einem Stichverfahren geimpft. Dann temperiert man die Schalen innerhalb von 5 Tagen bei einer zwischen 24 und 26 °C liegenden Temperatur und mißt den Durchmesser von Pilzkolonien, ermittelt den Prozentsatz der Hemmung des Myzelwachstums (S) ausgehend von Angaben am 5. Tag nach der Abbott-Formel [drawing 13] worin dc für den Durchmesser der Pilzkolonien, de für den Durchmesser von Pilzkolonien in der Schale stehen, wo ein die zu prüfenden Stoffe enthaltendes Medium vorhanden ist. Dieses Verfahren zur Ermittlung der mikrobiologischen Aktivität ist in anderen Beispielen verwendet.
(§3) Die Pilzkulturen werden auf Würzeagar gezüchtet. Ergebnisse, erhalten bei der Prüfung der fungiziden Aktivität gegen reine Kulturen von Mikroorganismen, welche Bioschädigungen hervorrufen, sind in der Tabelle 1 dargestellt.

[2] = tested on: Cladosporium cladosporioides; test: as above; assay type: cell-based; details: Cladosporium cladosporioides, 120 h, Würzeagar, read-out: Myzelhemmung in %
Protocol: as §2, §3

Geotrichum candidum Link = test: as above; assay type: cell-based; details: Würzeagar
Protocol: as §2, §3

Acremonium cowum [3] = test: as above; assay type: cell-based; details: 120 h, Würzeagar, read-out: Myzelhemmung in %
Protocol: as §2, §3

Oidium Sp. = test: as above; assay type: cell-based; details: Würzeagar
Protocol: as §2, §3

Penicillium chrysogenum = test: as above; assay type: cell-based; details: Würzeagar
Protocol: as §2, §3

Rhizoctonia solani = test: Soil fungicide test (fungal discs in treated soil); assay type: cell-based; set-up: key: Das Vorhandensein (+); das Fehlen (-) des wachsenden Myzels um die Scheibe herum; details: 160 mg/kg Boden
Protocol: (§4) Eine 50 g schwere Bodenprobe bringt man in ein Glasgefäß ein, sterilisiert innerhalb von 2 Stunden unter einem Druck von 2 atm, gibt dann dem Boden das Präparat als wäßrige Lösung ausgehend von 160 mg/kg zu, wonach in den Boden Scheiben mit Kulturen folgender Pilze Fusarium oxysporum, Verticillium dahliae, Rhizoctonia solani, Pythium ultimum untergebracht werden.
(§5) Nach 24 und 48 Stunden werden die Scheiben in fließendem Wasser, dann in sterilem Wasser gewaschen, auf sterilem Filterpapier getrocknet und auf eine reine Agarplatte gelegt. Das Vorhandensein (+) oder das Fehlen (-) des wachsenden Myzels um die Scheibe herum wies auf die Wirksamkeit des Präparats. Als Vergleichsmuster diente dabei Karbathion. Die Prüfergebnisse sind in der Tabelle 5 dargestellt.

Verticillium dahliae [4] = test: Soil fungicide test (fungal discs in treated soil); assay type: cell-based; set-up: key: Das Vorhandensein (+); das Fehlen (-) des wachsenden Myzels um die Scheibe herum; details: 160 mg/kg Boden
Protocol: as §4, §5

Pythium ultimum = test: Soil fungicide test (fungal discs in treated soil); assay type: cell-based; set-up: key: Das Vorhandensein (+); das Fehlen (-) des wachsenden Myzels um die Scheibe herum; details: 160 mg/kg Boden
Protocol: as §4, §5

Fusarium oxysporum = test: Soil fungicide test (fungal discs in treated soil); assay type: cell-based; set-up: key: Das Vorhandensein (+); das Fehlen (-) des wachsenden Myzels um die Scheibe herum; details: 160 mg/kg Boden
Protocol: as §4, §5

Acremonium cowum [5] = test: Mycelial growth inhibition on agar (contact activity); assay type: cell-based; details: 120 h, Würzeagar, read-out: Myzelhemmung in %; remark: listed apart in the source
Helminthosporium sativum = test: Barley seed dressing against root rot (helminthosporiosis); assay type: in vivo; details: Aufwandmenge von 1 g/kg
Protocol: Die Aktivität der Verbindung gegen Wurzelfäule (Helminthosporiose) der Gerste wurde unter Laborbedingungen untersucht. Gerstensamen, infiziert mit einer 7 Tage alten Pizkultur Helminthosporium sativum, wurden durch Präparaten ausgehend von 1 g Präparat (bezogen auf den Wirkstoff) je 1 kg Samen nach einem halbtrockenen Verfahren gebeizt, in Aufzuchträume mit befeuchtetem Sand gesät und innerhalb von 11 bis 14 Tagen bei einer zwischen 20 und 22 °C gehalten. Am 14 Tag schätzte man die Keimfähigkeit von Gerstensamen ein und ermittelte die Quote von durch Helminthosporiose befallenen Pflanzen. Die Prüfergebnisse sind in der Tabelle 4 dargestellt.

[6] = Solubility in water (descriptive); assay type: physicochemical
[7] = tested on: Cladosporium cladosporioides; test: Mycelial growth inhibition on agar (contact activity); assay type: cell-based; details: Cladosporium cladosporioides, 120 h; Präparatkonzentration 0,006 %; Würzeagar; read-out: Myzelhemmung in %
[8] = tested on: Wurzelschimmelkomplex von Gewächshausgurken; test: Greenhouse trial against cucumber root mould complex (200 m^2); assay type: in vivo
Excerpt: Kalium-N-(vinyloxyäthyl)dithiocarbamat wurde gegen Wurzelschimmelkomplex von Gewächshausgurken auf einer Fläche von 200 m^2 und 1 ha geprüft. Die auf einer 200 m^2 großen Fläche durchgeführten Prüfungen haben gezeigt, daß Kalium-N-(vinyloxyäthyl)dithiocarbamat die 100%ige Unterdrückung von Erregern der Pythium-Fäule und der begleitenden Gurkenwurzelschimmeln bewirkt. Der Ernteertrag steigt dabei durch Bodenbehandlung um 4,2 kg/m^2 gegenüber Kontrolle (ohne Wirkstoffgabe ist der Ertrag 10 kg/m^2 und um 1,6 kg/m^2 gegenüber Fundazol an.

Which inhibition of growth at 0.01 % (Botrytis cinerea; Wirkstoffkonzentration 0,01 %) does the source give for C=COCCNC(=S)S [Kalium-N-(vinyloxyäthyl)dithiocarbamat] here?
The inhibition of growth at 0.01 % was 100%.

And the inhibition of growth at 0.003 % (Botrytis cinerea; Wirkstoffkonzentration 0,003 %)?
The inhibition of growth at 0.003 % was 100%.

What about the inhibition of growth at 0.01 % (Verticillium dahliae [1]; Wirkstoffkonzentration 0,01 %) of the same compound?
The inhibition of growth at 0.01 % was 100%.

What about the inhibition of growth at 0.003 % (Verticillium dahliae [1]; Wirkstoffkonzentration 0,003 %) of the same compound?
The inhibition of growth at 0.003 % was 100%.

What about the inhibition of growth at 0.01 % (Fusarium sambucinum; Wirkstoffkonzentration 0,01 %) of the same compound?
The inhibition of growth at 0.01 % was 100%.

What about the inhibition of growth at 0.003 % (Fusarium sambucinum; Wirkstoffkonzentration 0,003 %) of the same compound?
Its inhibition of growth at 0.003 % is 100%.

And the inhibition of growth at 0.0015 % (Penicillium charlesii; Präparatkonzentration 0,0015 %)?
Its inhibition of growth at 0.0015 % is 30%.

What about the inhibition of growth at 0.003 % (Penicillium charlesii; Präparatkonzentration 0,003 %) of the same compound?
The inhibition of growth at 0.003 % was 55%.

And the inhibition of growth at 0.006 % (Penicillium charlesii; Präparatkonzentration 0,006 %)?
The inhibition of growth at 0.006 % was 90%.

And the inhibition of growth at 0.012 % (Penicillium charlesii; Präparatkonzentration 0,012 %)?
The inhibition of growth at 0.012 % was 100%.

What about the inhibition of growth at 0.0015 % ([2]; Präparatkonzentration 0,0015 %) of the same compound?
The inhibition of growth at 0.0015 % was 100%.

What about the inhibition of growth at 0.003 % ([2]; Präparatkonzentration 0,003 %) of the same compound?
Its inhibition of growth at 0.003 % is 100%.

And the inhibition of growth at 0.012 % ([2]; Präparatkonzentration 0,012 %)?
The inhibition of growth at 0.012 % was 100%.

And the inhibition of growth at 0.012 % (Geotrichum candidum Link; Geotrichum candidum, 120 h, Präparatkonzentration 0,012 %, read-out: Myzelhemmung in %)?
The inhibition of growth at 0.012 % was 100%.

And the Myzelhemmung in % (Geotrichum candidum Link; Präparatkonzentration 0,0015 %)?
The Myzelhemmung in % was 30%.

And the Myzelhemmung in % (Geotrichum candidum Link; Präparatkonzentration 0,003 %)?
The Myzelhemmung in % was 100%.

And the Myzelhemmung in % (Geotrichum candidum Link; Präparatkonzentration 0,006 %)?
Its Myzelhemmung in % is 100%.

And the inhibition of growth at 0.0015 % (Acremonium cowum [3]; Präparatkonzentration 0,0015 %)?
The inhibition of growth at 0.0015 % was 100%.

What about the inhibition of growth at 0.012 % (Acremonium cowum [3]; Präparatkonzentration 0,012 %) of the same compound?
The inhibition of growth at 0.012 % was 100%.

And the inhibition of growth at 0.003 % (Oidium Sp.; 120 h, Präparatkonzentration 0,003 %, read-out: Myzelhemmung in %)?
Its inhibition of growth at 0.003 % is 100%.

What about the inhibition of growth at 0.006 % (Oidium Sp.; 120 h, Präparatkonzentration 0,006 %, read-out: Myzelhemmung in %) of the same compound?
Its inhibition of growth at 0.006 % is 100%.

And the inhibition of growth at 0.012 % (Oidium Sp.; 120 h, Präparatkonzentration 0,012 %, read-out: Myzelhemmung in %)?
Its inhibition of growth at 0.012 % is 100%.

And the Myzelhemmung in % (Oidium Sp.; Präparatkonzentration 0,0015 %)?
Its Myzelhemmung in % is 96%.

And the inhibition of growth at 0.003 % (Penicillium chrysogenum; Penicillium chrysogenum, 120 h, Präparatkonzentration 0,003 %, read-out: Myzelhemmung in %)?
Its inhibition of growth at 0.003 % is 26%.

What about the inhibition of growth at 0.006 % (Penicillium chrysogenum; Penicillium chrysogenum, 120 h, Präparatkonzentration 0,006 %, read-out: Myzelhemmung in %) of the same compound?
Its inhibition of growth at 0.006 % is 93%.

And the inhibition of growth at 0.012 % (Penicillium chrysogenum; Penicillium chrysogenum, 120 h, Präparatkonzentration 0,012 %, read-out: Myzelhemmung in %)?
Its inhibition of growth at 0.012 % is 100%.

What about the Myzelhemmung in % (Penicillium chrysogenum; Präparatkonzentration 0,0015 %) of the same compound?
Its Myzelhemmung in % is 15%.

And the “wachsendes Myzel um die Scheibe” value (Rhizoctonia solani; Haltedauer 24 Stunden)?
The value was “-”.

And the “wachsendes Myzel um die Scheibe” value (Rhizoctonia solani; Haltedauer 48 Stunden)?
The value was “-”.

And the “wachsendes Myzel um die Scheibe” value (Verticillium dahliae [4]; Haltedauer 24 Stunden)?
The value was “-”.

And the “wachsendes Myzel um die Scheibe” value (Verticillium dahliae [4]; Haltedauer 48 Stunden)?
Its value is “-”.

What about the “wachsendes Myzel um die Scheibe” value (Pythium ultimum; Haltedauer 24 Stunden) of the same compound?
Its value is “-”.

And the “wachsendes Myzel um die Scheibe” value (Pythium ultimum; Haltedauer 48 Stunden)?
Its value is “-”.

What about the “wachsendes Myzel um die Scheibe” value (Fusarium oxysporum; Haltedauer 24 Stunden) of the same compound?
The value was “-”.

What about the “wachsendes Myzel um die Scheibe” value (Fusarium oxysporum; Haltedauer 48 Stunden) of the same compound?
The value was “-”.

What about the inhibition of growth at 0.003 % (Acremonium cowum [5]; Präparatkonzentration 0,003 %) of the same compound?
The inhibition of growth at 0.003 % was 100%.

What about the inhibition of growth at 0.006 % (Acremonium cowum [5]; Präparatkonzentration 0,006 %) of the same compound?
Its inhibition of growth at 0.006 % is 100%.

What about the “Wirksamkeit als Beizmittel gegenüber Vergleichsmuster (TMTD und Polykarbazin)” value (Helminthosporium sativum) of the same compound?
The value was “zweimal wirksamer”.

And the “Löslichkeit in Wasser” value [6]?
The value was “gut”.

And the inhibition of growth at 0.006 % [7]?
The inhibition of growth at 0.006 % was 100%.

And the “Unterdrückung von Erregern der Pythium-Fäule und der begleitenden Gurkenwurzelschimmeln” value ([8]; 200 m^2 große Fläche)?
The value was 100%.

What about the “Ernteertrag steigt gegenüber Fundazol” value ([8]; Bodenbehandlung, 200 m^2) of the same compound?
Its value is 1,6 kg/m^2.

And the “Ernteertrag steigt gegenüber Kontrolle” value ([8]; Bodenbehandlung, 200 m^2, Kontrolle 10 kg/m^2)?
Its value is 4,2 kg/m^2.
